# In patent US20230062100A1, “SUBSTITUTED AMINOQUINOLONES AS DGKALPHA INHIBITORS FOR IMMUNE ACTIVATION” (Bayer Aktiengesellschaft, priority 2019, published 2023):
# Target: DGKα (Homo sapiens, UniProt P23743)
# Experiment: Human DGKα kinase activity inhibition assay (ADP-Glo)
# Format: biochemical
# Settings: in vitro human DGKα kinase activity inhibition assay
# Description: Human DGKα inhibitory activity of compounds of the present invention was quantified employing the human DGKα kinase activity assay as described in the following paragraphs. In essence, the enzyme activity was measured by quantification of the adenosine-di-phosphate (ADP) generated as a co-product of the enzyme reaction via the “ADP-Glo™ Kinase Assay” kit from the company Promega. This detection system works as follows: In a first step the ATP not consumed in the kinase reaction is quantitatively converted to cAMP employing an adenylate cyclase (“ADP-Glo-reagent”), then the adenylate cyclase is stopped and the ADP generated in the kinase reaction converted to ATP, which subsequently generates in a luciferase-based reaction a glow-luminescence signal (“Kinase Detection Reagent”). C-terminally FLAG-tagged, recombinant full-length human DGKα (expressed in baculovirus infected insect cells, purified using anti-Flag pulldown and size exclusion chromatography as described below, DGKα_hu_1) was used as enzyme. As substrate for the kinase 1,2-dioleoyl-sn-glycerol, reconstituted in octyl-β-D-glucopyranoside micelles, was used. For the preparation of the micelles, 1 volume of a 16.1 mM solution of 1,2-dioleoyl-sn-glycerol (Avanti, Cat. #O8001-25G) in chloroform was slowly evaporated using a nitrogen stream. Subsequently, 22.55 volumes of a 510 mM solution of octyl-β-D-glucopyranoside (Sigma-Aldrich, Cat. #O8001-10G) in 50 mM MOPS buffer (pH 7.4) were added, and the mixture was sonicated in an ultrasonic bath for 20 s. Then 35 volumes of 50 mM MOPS buffer (pH 7.4) were added to yield a solution of 0.28 mM 1,2 dioleoyl-sn-glycerol and 200 mM octyl-β-D-glucopyranoside, which was aliquoted, flash-frozen in liquid nitrogen, and stored at −20° C. until use. For each experiment, a fresh aliquot was quickly thawed and diluted 24-fold with aqueous assay buffer (described below) containing 95.7 μM adenosine triphosphate (Promega) to yield a 1.67-fold concentrated substrate solution. For the assay 50 nl of a 100-fold concentrated solution of the test compound in dimethyl sulfoxide (DMSO, Sigma) was pipetted into either a white 1536-well or a white low-volume 384-well microtiter plate (both Greiner Bio-One, Frickenhausen, Germany). […] The concentration of DGK a was adjusted depending of the activity of the enzyme lot and was chosen appropriate to have the assay in the linear range, a typical concentration is about 0.1 nM. The reaction was stopped by the addition of 2.5 μl of “ADP-Glo-reagent” (1 to 1.5 diluted with water) and the resulting mixture was incubated at 22° C. for 1 h to convert the ATP not consumed in the kinase reaction completely to cAMP. […] The amount of emitted light was taken as a measure for the amount of ADP generated and thereby for the activity of the DGKα.
# Sequence of DGKα (P23743 with tags, fused parts or gaps): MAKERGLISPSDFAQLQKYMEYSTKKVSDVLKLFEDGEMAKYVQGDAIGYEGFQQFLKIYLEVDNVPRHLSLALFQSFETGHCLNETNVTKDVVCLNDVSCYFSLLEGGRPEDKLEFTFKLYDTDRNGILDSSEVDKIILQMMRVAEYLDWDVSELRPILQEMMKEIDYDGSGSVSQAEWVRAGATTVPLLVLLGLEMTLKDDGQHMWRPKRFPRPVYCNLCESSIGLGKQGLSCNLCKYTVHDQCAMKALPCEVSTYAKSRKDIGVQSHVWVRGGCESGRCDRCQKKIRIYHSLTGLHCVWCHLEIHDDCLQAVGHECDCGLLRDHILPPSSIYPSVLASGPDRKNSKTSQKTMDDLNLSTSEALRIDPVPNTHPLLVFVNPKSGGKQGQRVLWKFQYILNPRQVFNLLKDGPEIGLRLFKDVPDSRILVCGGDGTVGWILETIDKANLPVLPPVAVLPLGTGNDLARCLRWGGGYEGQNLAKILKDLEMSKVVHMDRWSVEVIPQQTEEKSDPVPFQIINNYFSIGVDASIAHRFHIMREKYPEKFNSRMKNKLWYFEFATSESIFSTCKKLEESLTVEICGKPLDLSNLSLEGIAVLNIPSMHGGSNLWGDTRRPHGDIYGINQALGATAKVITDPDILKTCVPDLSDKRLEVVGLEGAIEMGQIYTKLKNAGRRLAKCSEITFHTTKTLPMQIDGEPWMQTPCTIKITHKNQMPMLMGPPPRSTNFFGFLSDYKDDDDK
row,SMILES,IC50 [nM]
1,"COc1ccc(OC2CCN(c3c(C#N)c(=O)n(C)c4ccccc34)CC2)cc1 [Example 46, 4-[4-(4-methoxyphenoxy)piperidin-1-yl]-1-methyl-2-oxo-1,2-dihydroquinoline-3-carbonitrile]",32
2,"Cn1c(=O)c(C#N)c(N2CCC(Oc3ccccc3C(F)(F)F)CC2)c2ccccc21 [Example 36, 1-methyl-2-oxo-4-{4-[2-(trifluoromethyl)phenoxy]piperidin-1-yl}-1,2-dihydroquinoline-3-carbonitrile]",164
3,"Cn1c(=O)c(C#N)c(N2CCC(Oc3cccc(OC(F)(F)F)c3)CC2)c2ccc(P(C)(C)=O)cc21 [Example 78, 7-(dimethylphosphoryl)-1-methyl-2-oxo-4-{4-[3-(trifluoromethoxy)phenoxy]piperidin-1-yl}-1,2-dihydroquinoline-3-carbonitrile]",1130
4,"Cn1c(=O)c(C#N)c(N2CCC(Oc3ccccc3)CC2)c2ccc(OC3CC3)cc21 [Example 70, 7-(cyclopropyloxy)-1-methyl-2-oxo-4-(4-phenoxypiperidin-1-yl)-1,2-dihydroquinoline-3-carbonitrile]",17
5,"Cc1cc(Br)c2c(c1)c(N1CCC(Oc3cccc(Cl)c3)CC1)c(C#N)c(=O)n2C [Example 169, 8-bromo-4-[4-(3-chlorophenoxy)piperidin-1-yl]-1,6-dimethyl-2-oxo-1,2-dihydroquinoline-3-carbonitrile]",2530
6,"Cn1c(=O)c(C#N)c(N2CCC(OCc3cccc(F)c3)CC2)c2ccccc21 [Example 113, 4-{4-[(3-fluorophenyl)methoxy]piperidin-1-yl}-1-methyl-2-oxo-1,2-dihydroquinoline-3-carbonitrile]",12
7,"Cn1c(=O)c(C#N)c(N2CCC(Oc3ccc(Cl)cc3)CC2)c2ccccc21 [Example 10, 4-[4-(4-chlorophenoxy)piperidin-1-yl]-1-methyl-2-oxo-1,2-dihydroquinoline-3-carbonitrile]",10
8,"Cn1c(=O)c(C#N)c(N2CCC(Sc3ccccc3)CC2)c2ccc(Br)cc21 [Example 55, 7-bromo-1-methyl-2-oxo-4-[4-(phenylsulfanyl)piperidin-1-yl]-1,2-dihydroquinoline-3-carbonitrile]",4.4
9,"COc1ccccc1OC1CCN(c2c(C#N)c(=O)n(C)c3ccc(C)cc23)CC1 [Example 154, 4-[4-(2-methoxyphenoxy)piperidin-1-yl]-1,6-dimethyl-2-oxo-1,2-dihydroquinoline-3-carbonitrile]",13
10,"Cn1c(=O)c(C(N)=O)c(N2CCC(OCc3ccc(F)cc3)CC2)c2ccccc21 [Example 127, 4-{4-[(4-fluorophenyl)methoxy]piperidin-1-yl}-1-methyl-2-oxo-1,2-dihydroquinoline-3-carboxamide]",14
11,"COc1cccc(OC2CCN(c3c(C#N)c(=O)n(C)c4ccc(Br)cc34)CC2)c1 [Example 138, 6-bromo-4-[4-(3-methoxyphenoxy)piperidin-1-yl]-1-methyl-2-oxo-1,2-dihydroquinoline-3-carbonitrile]",1.5
12,"Cn1ccn(-c2ccc(OC3CCN(c4c(C#N)c(=O)n(C)c5ccccc45)CC3)cc2)c1=O [Example 25, 1-methyl-4-{4-[4-(3-methyl-2-oxo-2,3-dihydro-1H-imidazol-1-yl)phenoxy]piperidin-1-yl}-2-oxo-1,2-dihydroquinoline-3-carbonitrile]",283
13,"COc1ccc2c(N3CCC(Oc4ccccc4)CC3)c(C#N)c(=O)n(C)c2c1 [Example 89, 7-methoxy-1-methyl-2-oxo-4-(4-phenoxypiperidin-1-yl)-1,2-dihydroquinoline-3-carbonitrile]",4.7
14,"COCCc1ccc2c(N3CCC(Oc4cccc(Cl)c4)CC3)c(C#N)c(=O)n(C)c2c1 [Example 74, 4-[4-(3-chlorophenoxy)piperidin-1-yl]-7-(2-methoxyethyl)-1-methyl-2-oxo-1,2-dihydroquinoline-3-carbonitrile]",3.5
15,"Cn1c(=O)c(C#N)c(N2CCC(Sc3ccccc3)CC2)c2cc(C#N)ccc21 [Example 144, 1-methyl-2-oxo-4-[4-(phenylsulfanyl)piperidin-1-yl]-1,2-dihydroquinoline-3,6-dicarbonitrile]",3
16,"CN1CCN(c2ccc(OC3CCN(c4c(C#N)c(=O)n(C)c5ccccc45)CC3)cc2)C1=O [Example 22, 1-methyl-4-{4-[4-(3-methyl-2-oxoimidazolidin-1-yl)phenoxy]piperidin-1-yl}-2-oxo-1,2-dihydroquinoline-3-carbonitrile]",129
17,"Cn1c(=O)c(C#N)c(N2CCC(Oc3ccc(N4CCOCC4)cc3)CC2)c2ccccc21 [Example 20, 1-methyl-4-{4-[4-(morpholin-4-yl)phenoxy]piperidin-1-yl}-2-oxo-1,2-dihydroquinoline-3-carbonitrile]",81
18,"COc1ccc2c(N3CCC(Oc4ccc(OC(F)(F)F)cc4)CC3)c(C#N)c(=O)n(C)c2c1 [Example 71, 7-methoxy-1-methyl-2-oxo-4-{4-[4-(trifluoromethoxy)phenoxy]piperidin-1-yl}-1,2-dihydroquinoline-3-carbonitrile]",5.7
19,"COCCc1ccc2c(N3CCC(Oc4cccc(OC(F)(F)F)c4)CC3)c(C#N)c(=O)n(C)c2c1 [Example 76, 7-(2-methoxyethyl)-1-methyl-2-oxo-4-{4-[3-(trifluoromethoxy)phenoxy]piperidin-1-yl}-1,2-dihydroquinoline-3-carbonitrile]",6.8
20,"Cn1c(=O)c(C(N)=O)c(N2CCC(Oc3ccc(OC(F)F)cc3)CC2)c2ccccc21 [Example 52, 4-{4-[4-(difluoromethoxy)phenoxy]piperidin-1-yl}-1-methyl-2-oxo-1,2-dihydroquinoline-3-carboxamide]",3.8
21,"Cn1c(=O)c(C#N)c(N2CCC(C)(Oc3ccc(N)cc3)CC2)c2ccccc21 [Example 41, 4-[4-(4-aminophenoxy)-4-methylpiperidin-1-yl]-1-methyl-2-oxo-1,2-dihydroquinoline-3-carbonitrile]",173
22,"Cn1c(=O)c(C#N)c(N2CCC(OCc3ccccc3F)CC2)c2ccccc21 [Example 111, 4-{4-[(2-fluorophenyl)methoxy]piperidin-1-yl}-1-methyl-2-oxo-1,2-dihydroquinoline-3-carbonitrile]",4.8
23,"Cn1c(=O)c(C#N)c(N2CCCC(Oc3ccc(Br)cc3)CC2)c2ccccc21 (racemic) [Example 103, (rac)-4-[4-(4-bromophenoxy)azepan-1-yl]-1-methyl-2-oxo-1,2-dihydroquinoline-3-carbonitrile]",18
24,"COc1cccc(OC2CCN(c3c(C(N)=O)c(=O)n(C)c4ccc(C)cc34)CC2)c1 [Example 159, 4-[4-(3-methoxyphenoxy)piperidin-1-yl]-1,6-dimethyl-2-oxo-1,2-dihydroquinoline-3-carboxamide]",12
25,"COc1cccc(OC2CCN(c3c(C#N)c(=O)n(C)c4ccc(C)cc34)CC2)c1 [Example 152, 4-[4-(3-methoxyphenoxy)piperidin-1-yl]-1,6-dimethyl-2-oxo-1 2-dihydroquinoline-3-carbonitrile]",3.8
26,"Cn1c(=O)c(C#N)c(N2CCC(Oc3ccc(OC(F)(F)F)cc3)CC2)c2cccc(S(C)(=O)=O)c21 [Example 136, 8-(methanesulfonyl)-1-methyl-2-oxo-4-{4-[4-(trifluoromethoxy)phenoxy]piperidin-1-yl}-1,2-dihydroquinoline-3-carbonitrile]",2.5
27,"COc1cccc(COC2CCN(c3c(C(N)=O)c(=O)n(C)c4ccccc34)CC2)c1 [Example 125, 4-{4-[(3-methoxyphenyl)methoxy]piperidin-1-yl}-1-methyl-2-oxo-1,2-dihydroquinoline-3-carboxamide]",43
28,"Cn1c(=O)c(C#N)c(N2CCC(Cc3nc4ccccc4s3)CC2)c2ccccc21 [Example 93, 4-{4-[(1,3-benzothiazol-2-yl)methyl]piperidin-1-yl}-1-methyl-2-oxo-1,2-dihydroquinoline-3-carbonitrile]",39
29,"Cn1c(=O)c(C#N)c(N2CCC(Oc3ccc(-n4cncn4)cc3)CC2)c2ccccc21 [Example 17, 1-methyl-2-oxo-4-{4-[4-(1H-1,2,4-triazol-1-yl)phenoxy]piperidin-1-yl}-1,2-dihydroquinoline-3-carbonitrile]",45
30,"CN(C)C(=O)c1ccc(OC2CCN(c3c(C#N)c(=O)n(C)c4ccccc34)CC2)cc1 [Example 26, 4-{[1-(3-cyano-1-methyl-2-oxo-1,2-dihydroquinolin-4-yl)piperidin-4-yl]oxy}-N,N-dimethylbenzamide]",415
